Source: ChEMBL document CHEMBL6127029, “Glutathione-dependent degradation of SMARCA2/4 for targeted lung cancer therapy with improved selectivity” (Eur J Med Chem, 2024)
Activity calls are given as the source filed them. No cut-off for these calls is given here.

Assays:
[1] = target: T1, von Hippel-Lindau disease tumor suppressor/SWI/SNF-related matrix-associated actin-dependent regulator of chromatin subfamily A member 2 (Homo sapiens) (UniProt P51531+P40337); assay: PROTAC activity at VHL/SMARCA2 in human A549 cells assessed as induction of SMARCA2 degradation at 1 uM incubated for 24 hrs by Western blotting analysis; assay type: cell-based
[2] = target: T1, von Hippel-Lindau disease tumor suppressor/SWI/SNF-related matrix-associated actin-dependent regulator of chromatin subfamily A member 2 (Homo sapiens); assay: PROTAC activity at VHL/SMARCA2 in human HEK-293T cells assessed as induction of SMARCA2 degradation at 1 uM by Western blotting analysis; assay type: cell-based; settings: TDE = time-dependent effect
[3] = target: T2, von Hippel-Lindau disease tumor suppressor/SWI/SNF-related matrix-associated actin-dependent regulator of chromatin subfamily A member 4 (Homo sapiens) (UniProt P51532+P40337); assay: PROTAC activity at VHL/SMARCA4 in human HEK-293T cells assessed as induction of SMARCA4 degradation at 1 uM by Western blotting analysis; assay type: cell-based; settings: TDE = time-dependent effect
[4] = target: T1, von Hippel-Lindau disease tumor suppressor/SWI/SNF-related matrix-associated actin-dependent regulator of chromatin subfamily A member 2 (Homo sapiens); assay: PROTAC activity at VHL/SMARCA2 in human HuLEC-5a cells assessed as induction of SMARCA2 degradation at 1 uM by Western blotting analysis; assay type: cell-based; settings: TDE = time-dependent effect
[5] = target: T2, von Hippel-Lindau disease tumor suppressor/SWI/SNF-related matrix-associated actin-dependent regulator of chromatin subfamily A member 4 (Homo sapiens); assay: PROTAC activity at VHL/SMARCA4 in human HuLEC-5a cells assessed as induction of SMARCA4 degradation at 1 uM by Western blotting analysis; assay type: cell-based; settings: TDE = time-dependent effect
[6] = target: T1, von Hippel-Lindau disease tumor suppressor/SWI/SNF-related matrix-associated actin-dependent regulator of chromatin subfamily A member 2 (Homo sapiens); assay: PROTAC activity at VHL/SMARCA2 in human HEK-293T cells assessed as induction of SMARCA2 degradation at 1 uM incubated for 24 hrs by Western blotting analysis relative to control; assay type: cell-based
[7] = target: T2, von Hippel-Lindau disease tumor suppressor/SWI/SNF-related matrix-associated actin-dependent regulator of chromatin subfamily A member 4 (Homo sapiens); assay: PROTAC activity at VHL/SMARCA4 in human HEK-293T cells assessed as induction of SMARCA4 degradation at 1 uM incubated for 24 hrs by Western blotting analysis relative to control; assay type: cell-based
[8] = target: T1, von Hippel-Lindau disease tumor suppressor/SWI/SNF-related matrix-associated actin-dependent regulator of chromatin subfamily A member 2 (Homo sapiens); assay: PROTAC activity at VHL/SMARCA2 in human A549 cells assessed as induction of SMARCA2 degradation at 1 uM by Western blotting analysis; assay type: cell-based; settings: TDE = time-dependent effect
[9] = target: T1, von Hippel-Lindau disease tumor suppressor/SWI/SNF-related matrix-associated actin-dependent regulator of chromatin subfamily A member 2 (Homo sapiens); assay: PROTAC activity at VHL/SMARCA2 in human NCI-H1299 cells assessed as induction of SMARCA2 degradation at 1 uM by Western blotting analysis; assay type: cell-based; settings: TDE = time-dependent effect
[10] = target: T1, von Hippel-Lindau disease tumor suppressor/SWI/SNF-related matrix-associated actin-dependent regulator of chromatin subfamily A member 2 (Homo sapiens); assay: PROTAC activity at VHL/SMARCA2 in human A549 cells assessed as induction of SMARCA2 degradation at 1 uM pretreated with MG132 followed by compound addition and measured after 8 hrs by Western blotting analysis; assay type: cell-based
[11] = target: T1, von Hippel-Lindau disease tumor suppressor/SWI/SNF-related matrix-associated actin-dependent regulator of chromatin subfamily A member 2 (Homo sapiens); assay: PROTAC activity at VHL/SMARCA2 in human A549 cells assessed as induction of SMARCA2 degradation at 1 uM pretreated with MLN4924 followed by compound addition and measured after 8 hrs by Western blotting analysis; assay type: cell-based
[12] = target: T1, von Hippel-Lindau disease tumor suppressor/SWI/SNF-related matrix-associated actin-dependent regulator of chromatin subfamily A member 2 (Homo sapiens); assay: PROTAC activity at VHL/SMARCA2 in human 786-0 cells harboring mutated VHL assessed as induction of SMARCA2 degradation at 0.1 to 5 uM incubated for 8 hrs by Western blotting analysis; assay type: cell-based; settings: dose 0.1-5 µM
[13] = target: T2, von Hippel-Lindau disease tumor suppressor/SWI/SNF-related matrix-associated actin-dependent regulator of chromatin subfamily A member 4 (Homo sapiens); assay: PROTAC activity at VHL/SMARCA4 in human 786-0 cells harboring mutated VHL assessed as induction of SMARCA4 degradation at 0.1 to 5 uM incubated for 8 hrs by Western blotting analysis; assay type: cell-based; settings: dose 0.1-5 µM
[14] = target: T1, von Hippel-Lindau disease tumor suppressor/SWI/SNF-related matrix-associated actin-dependent regulator of chromatin subfamily A member 2 (Homo sapiens); assay: PROTAC activity at VHL/SMARCA2 in human NCI-H1299 cells harboring shRNA mediated VHL knockdown assessed as induction of SMARCA2 degradation at 0.1 to 2 uM incubated for 8 hrs by Western blotting analysis; assay type: cell-based; settings: dose 0.1-2 µM
[15] = target: T1, von Hippel-Lindau disease tumor suppressor/SWI/SNF-related matrix-associated actin-dependent regulator of chromatin subfamily A member 2 (Homo sapiens); assay: PROTAC activity at VHL/SMARCA2 in human A549 cells harboring shRNA mediated VHL knockdown assessed as induction of SMARCA2 degradation at 0.1 to 2 uM incubated for 8 hrs by Western blotting analysis; assay type: cell-based; settings: dose 0.1-2 µM
[16] = Cytotoxicity against human HuLEC-5a cells assessed as inhibition of cell growth incubated for 3 days by MTT assay; assay type: toxicity, cell-based
[17] = tested on: NCI-H1299; assay: Cytotoxicity against human NCI-H1299 cells assessed as inhibition of cell growth incubated for 3 days by MTT assay; assay type: functional, cell-based; settings: NCI-H1299, 72 h
[18] = tested on: A549; assay: Cytotoxicity against human A549 cells assessed as inhibition of cell growth incubated for 3 days by MTT assay; assay type: functional, cell-based; settings: A549, 72 h
[19] = tested on: A549; assay: Inhibition of cell migration in human A549 cells at 10 uM incubated for 36 hrs by scratch wound healing based fluorescent microscopic analysis; assay type: functional
[20] = tested on: HuLEC-5a; assay: Inhibition of cell migration in human HuLEC-5a cells at 10 uM incubated for 36 hrs by scratch wound healing based fluorescent microscopic analysis; assay type: functional

T2 sequence (P40337 whole entry, looked up): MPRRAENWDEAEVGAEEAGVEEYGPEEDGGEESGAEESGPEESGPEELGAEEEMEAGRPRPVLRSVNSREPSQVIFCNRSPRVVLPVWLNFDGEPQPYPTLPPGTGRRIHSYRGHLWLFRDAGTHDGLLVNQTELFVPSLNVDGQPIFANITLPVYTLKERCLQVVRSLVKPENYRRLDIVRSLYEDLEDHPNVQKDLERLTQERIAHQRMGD
T2 sequence (P51532 whole entry, looked up): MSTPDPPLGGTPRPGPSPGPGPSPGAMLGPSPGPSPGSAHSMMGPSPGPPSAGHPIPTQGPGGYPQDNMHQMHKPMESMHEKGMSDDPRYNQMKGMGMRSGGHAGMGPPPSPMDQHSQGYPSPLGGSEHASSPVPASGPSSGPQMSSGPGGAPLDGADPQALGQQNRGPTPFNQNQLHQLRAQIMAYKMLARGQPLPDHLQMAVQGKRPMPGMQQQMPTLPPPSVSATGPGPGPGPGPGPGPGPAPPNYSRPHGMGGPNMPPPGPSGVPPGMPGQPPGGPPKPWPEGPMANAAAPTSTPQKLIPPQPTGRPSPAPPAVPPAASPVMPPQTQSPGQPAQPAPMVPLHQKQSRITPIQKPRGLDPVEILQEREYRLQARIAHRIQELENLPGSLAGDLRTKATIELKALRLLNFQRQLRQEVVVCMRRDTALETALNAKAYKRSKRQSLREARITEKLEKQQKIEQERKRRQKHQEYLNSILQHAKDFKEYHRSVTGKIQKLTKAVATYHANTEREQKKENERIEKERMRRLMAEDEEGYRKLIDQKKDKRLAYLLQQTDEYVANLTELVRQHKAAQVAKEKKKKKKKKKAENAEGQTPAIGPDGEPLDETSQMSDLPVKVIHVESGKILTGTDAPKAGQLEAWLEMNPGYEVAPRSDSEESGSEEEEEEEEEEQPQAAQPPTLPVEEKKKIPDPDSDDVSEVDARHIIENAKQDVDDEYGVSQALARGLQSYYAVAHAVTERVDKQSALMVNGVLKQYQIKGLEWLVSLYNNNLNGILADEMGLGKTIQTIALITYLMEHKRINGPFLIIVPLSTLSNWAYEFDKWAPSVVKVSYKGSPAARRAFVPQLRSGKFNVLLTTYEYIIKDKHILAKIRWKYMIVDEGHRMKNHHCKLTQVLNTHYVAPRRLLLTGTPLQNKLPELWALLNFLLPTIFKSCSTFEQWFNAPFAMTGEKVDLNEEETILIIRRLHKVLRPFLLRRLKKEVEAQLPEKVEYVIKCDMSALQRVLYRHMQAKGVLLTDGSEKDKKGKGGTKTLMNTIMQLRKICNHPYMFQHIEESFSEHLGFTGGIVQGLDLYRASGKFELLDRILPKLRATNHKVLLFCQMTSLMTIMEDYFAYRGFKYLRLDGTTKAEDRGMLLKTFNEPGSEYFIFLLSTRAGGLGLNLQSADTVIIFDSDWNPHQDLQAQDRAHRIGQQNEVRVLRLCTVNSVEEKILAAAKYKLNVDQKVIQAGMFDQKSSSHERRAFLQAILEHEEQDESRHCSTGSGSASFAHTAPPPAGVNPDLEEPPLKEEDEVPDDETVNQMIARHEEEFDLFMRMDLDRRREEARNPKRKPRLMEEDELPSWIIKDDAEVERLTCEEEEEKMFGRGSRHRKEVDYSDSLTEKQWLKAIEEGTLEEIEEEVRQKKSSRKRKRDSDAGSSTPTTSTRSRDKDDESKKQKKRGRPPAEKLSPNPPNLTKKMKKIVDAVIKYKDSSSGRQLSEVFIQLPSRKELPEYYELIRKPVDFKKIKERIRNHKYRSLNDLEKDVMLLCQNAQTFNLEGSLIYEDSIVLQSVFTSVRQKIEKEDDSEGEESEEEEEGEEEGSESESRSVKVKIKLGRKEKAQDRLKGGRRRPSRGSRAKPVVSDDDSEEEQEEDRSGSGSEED
T1 sequence (P40337 whole entry, looked up): as the sequence (P40337 whole entry, looked up) above
T1 sequence (P51531 whole entry, looked up): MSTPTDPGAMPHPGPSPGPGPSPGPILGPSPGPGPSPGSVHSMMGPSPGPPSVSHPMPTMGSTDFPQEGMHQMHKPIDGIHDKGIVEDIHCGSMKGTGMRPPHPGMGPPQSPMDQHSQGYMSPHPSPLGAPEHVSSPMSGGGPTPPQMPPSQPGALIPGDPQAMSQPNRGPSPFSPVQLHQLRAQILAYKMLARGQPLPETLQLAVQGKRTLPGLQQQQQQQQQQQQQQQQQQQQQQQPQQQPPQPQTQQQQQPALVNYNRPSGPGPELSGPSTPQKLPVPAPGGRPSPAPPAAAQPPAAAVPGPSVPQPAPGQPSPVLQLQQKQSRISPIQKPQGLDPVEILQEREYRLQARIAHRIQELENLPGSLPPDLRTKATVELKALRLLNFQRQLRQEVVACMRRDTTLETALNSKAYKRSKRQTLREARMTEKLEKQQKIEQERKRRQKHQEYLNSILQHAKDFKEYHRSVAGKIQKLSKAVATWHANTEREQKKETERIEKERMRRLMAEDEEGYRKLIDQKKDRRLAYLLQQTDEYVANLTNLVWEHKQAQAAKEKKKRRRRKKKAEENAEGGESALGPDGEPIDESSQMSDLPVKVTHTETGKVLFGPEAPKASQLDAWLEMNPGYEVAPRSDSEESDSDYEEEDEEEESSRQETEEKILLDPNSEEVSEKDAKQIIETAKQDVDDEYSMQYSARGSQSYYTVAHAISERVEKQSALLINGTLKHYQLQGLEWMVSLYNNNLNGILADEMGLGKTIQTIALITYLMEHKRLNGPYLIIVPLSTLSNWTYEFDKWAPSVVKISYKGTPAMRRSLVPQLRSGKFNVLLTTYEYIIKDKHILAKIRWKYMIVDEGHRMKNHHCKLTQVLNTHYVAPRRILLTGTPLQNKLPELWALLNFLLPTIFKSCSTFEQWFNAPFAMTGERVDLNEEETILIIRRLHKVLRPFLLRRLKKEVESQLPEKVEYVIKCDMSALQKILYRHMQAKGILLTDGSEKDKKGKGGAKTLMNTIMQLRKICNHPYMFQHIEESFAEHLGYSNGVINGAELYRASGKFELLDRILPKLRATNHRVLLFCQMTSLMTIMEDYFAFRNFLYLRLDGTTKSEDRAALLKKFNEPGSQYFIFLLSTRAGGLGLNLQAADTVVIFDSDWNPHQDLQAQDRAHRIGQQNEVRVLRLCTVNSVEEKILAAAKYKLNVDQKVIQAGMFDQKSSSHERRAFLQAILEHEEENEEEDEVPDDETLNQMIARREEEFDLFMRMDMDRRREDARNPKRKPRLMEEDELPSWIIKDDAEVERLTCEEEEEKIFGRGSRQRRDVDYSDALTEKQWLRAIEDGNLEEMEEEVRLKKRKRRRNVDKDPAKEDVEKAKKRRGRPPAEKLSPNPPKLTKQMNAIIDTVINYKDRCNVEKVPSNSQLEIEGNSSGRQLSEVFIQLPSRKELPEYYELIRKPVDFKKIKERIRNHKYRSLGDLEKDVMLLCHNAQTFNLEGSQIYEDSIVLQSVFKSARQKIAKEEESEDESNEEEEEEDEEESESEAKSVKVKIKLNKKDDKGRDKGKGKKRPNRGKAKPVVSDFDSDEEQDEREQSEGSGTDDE

SMILES: Cc1ncsc1-c1ccc(CNC(=O)[C@@H]2C[C@@H](O)CN2C(=O)[C@@H](NC(=O)CN2CCN(c3cc(-c4ccccc4O)nnc3N)CC2)C(C)(C)C)cc1
- Activity [1]: Active
- Activity [2]: Tde
- Activity [3]: Tde
- Activity [4]: Tde
- Activity [5]: Tde
- Activity [6]: < 10%
- Activity [7]: < 10%
- Activity [8]: Tde
- Activity [9]: Tde
- Activity [10]: inactive
- Activity [11]: inactive
- Activity [12]: inactive
- Activity [13]: inactive
- Activity [14]: inactive
- Activity [15]: inactive
- IC50 at 3 days [16]: 24500 nM
- IC50 [17]: 1400 nM
- IC50 [18]: 1300 nM
- inhibition [19]: Active
- inhibition [20]: inactive
